{
  "source": "patent US11834663B2",
  "about": "“Fibrotic treatment” (Monash University, priority 2015, dated 2023)",
  "test_system": "hearts of aged (18-22 month old) WT mice",
  "test": "Reversal of age-induced cardiac fibrosis and inflammation in aged WT mice (histology, immunofluorescence, western blot)",
  "assay_type": "in vivo, mouse",
  "procedure": "There are 8 different sets of in vivo experiments in this study: • A) Phenotypic characterisation of the heart and blood vessels in global IRAP knockout mice and their WT controls treated for 4 weeks with Angiotensin (Ang) II (800 ng/kg/min; s.c.) where mouse hearts and blood vessels were compared to tissue obtained from young WT and IRAP^−/− mice treated with saline. • B) Prevention of Ang II-induced changes in the cardiovascular system following IRAP inhibitor treatment. In the prevention model, WT mice were treated with Ang II (800 ng/kg/min; s.c.)±the IRAP inhibitor (HFI-419; 500 ng/kg/min for 28 days) or HFI-vehicle (1 DMSO:3 HBC). • C) Phenotypic characterisation of the aged heart, kidney and blood vessels in the global IRAP knockout mice where aged WT and IRAP^−/− mouse hearts, kidneys and blood vessels were compared to tissue obtained from young WT and IRAP^−/− mice. • D) Reversal of the age-induced changes in the cardiovascular system following IRAP inhibitor treatment. In the reversal model, aged WT mice were treated with either saline, IRAP inhibitor (HFI-419 at 500 ng/kg/min; compound 1 at 500 ng/kg/min; compound 2 at 50 ng/kg/min) or HFI-vehicle (1 DMSO: 3 HBC) for 4 weeks. • E) Prevention of ischemic-reperfusion injury in isolated hearts taken from aged global IRAP knockout mice and aged IRAP inhibitor (HFI-419 at 500 ng/kg/min; s.c.) treated WT mice compared to age-matched vehicle-treated (1 DMSO:3 HBC; s.c.) WT controls. • F) Phenotypic characterization of cardiac function using echocardiography in the aged global IRAP knockout mice compared to aged and young WT mice. • G) Phenotypic characterization of liver steatosis in IRAP knockout mice in a high fat diet (HFD) model. • H) Reversal of the salt-induced fibrosis in the liver following IRAP inhibitor treatment.\nAll mice which underwent surgery were anaesthetized with Isoflurane (Isorrane) (5% induction and 2.5% maintenance) and an incision made in the midscapular region through which osmotic minipumps (Alzet model 2004, Alza Corp) were inserted for subcutaneous drug administration. The incision area was sutured with 6/0 DY silk (Dynek Pty Ltd) and antibiotic powder applied (Cicatrin, Pfizer) followed by intramuscular injection of the analgesic Cartrophen (0.1 ml of a 1.5 mg/ml stock solution; Biopharm Australia). Systolic blood pressure (SBP) was measured fortnightly using non-invasive tail-cuff plethysmography apparatus (MC4000 Blood Pressure Analysis System, Hatteras Instrument Inc) before drug treatment (week 0), at week 2 of treatment and end of treatment (week 4). At the end of drug treatment, body weight of mice was recorded. Mice were anaesthetized using Isoflurane inhalation and killed by cervical dislocation. Organs (heart, aorta, kidneys, brain, blood and tibia) were collected, with heart and aorta being dissected appropriately as described below. All organs were then snap frozen in liquid nitrogen, and stored at −80° C. if they were not used for vascular reactivity studies conducted on the day mice were killed.\nTo measure collagen deposition, frozen sections of heart, kidney or aorta (all 5 μm thickness) were air dried for 10 minutes and were brought through 3 times xylene (2 minutes each), and 3 times absolute alcohol washes before being rinsed in tap H2O for 30 seconds. Staining with an optimal concentration of picrosirius red (in this instance 0.05% picrosirius red diluted in saturated picric acid) was performed and left for an hour. Sections were then rinsed in water and differentiated in 0.01 M HCl for 2 minutes, followed by dehydration via 3 times absolute alcohol washes. Then, slides were brought through 3 times xylene washes before being cover slipped according to standard histological techniques using DPX as the mounting medium. […]",
  "key": {"[1]": {"conditions": "aged WT mice, HFI-419 4 weeks, FIG. 13"}, "[2]": {"conditions": "aged WT mice, HFI-419 4 weeks, FIG. 17"}, "[3]": {"conditions": "aged WT mice, HFI-419 4 weeks, FIG. 18"}},
  "data": [
    {"smiles": "CCOC(=O)C1=C(NC(C)=O)Oc2cc(O)ccc2C1c1cccnc1", "note": "(stereo not drawn) [HFI-419]", "values": [
      {"measurement": "ICAM-1 expression in heart", "setting": "[1]", "value": "reduced"},
      {"measurement": "MCP-1 expression in heart", "setting": "[1]", "value": "reduced"},
      {"measurement": "NFκB activation in heart (phospho-IκBα)", "setting": "[1]", "value": "diminished"},
      {"measurement": "macrophage expression in heart", "setting": "[1]", "value": "reduced"},
      {"measurement": "superoxide production in heart (DHE)", "setting": "[1]", "value": "diminished"},
      {"measurement": "MMP-2 protein level in heart", "setting": "[2]", "value": "no change"},
      {"measurement": "MMP-8 protein expression in heart", "setting": "[2]", "value": "trend towards increased"},
      {"measurement": "MMP-9 protein level in heart", "setting": "[2]", "value": "no change"},
      {"measurement": "MMP-13 protein level in heart", "setting": "[2]", "value": "no change"},
      {"measurement": "TIMP-1 protein levels in heart", "setting": "[2]", "value": "significantly decreased"},
      {"measurement": "precursor and mature forms of collagen α1 Type I in heart (western blot)", "setting": "[2]", "value": "markedly reduced"},
      {"measurement": "TGF-β1 expression in heart", "setting": "[3]", "value": "downregulation"},
      {"measurement": "synthetic myofibroblasts (α-SMA) in heart", "setting": "[3]", "value": "downregulation"},
      {"measurement": "IRAP expression in heart", "setting": "~20 month old WT mice, HFI-419 500 ng/kg/min s.c., 4 weeks, FIG. 8c", "value": "significantly decreased"},
      {"measurement": "age-induced cardiac collagen deposition (picrosirius red)", "setting": "~20 month old WT mice, HFI-419 500 ng/kg/min s.c., 4 weeks, FIGS. 15, 16", "value": "reversed age-induced collagen deposition to the same level seen in young adult mice"}
    ]}
  ]
}
